Assay results from a melting point compilation (Tetko et al.; mined from patent text by program, amines drawn as free bases though some values may be those of a salt).

Row | Structure (SMILES) | melting point
1 | CNS(=O)(=O)/C=C/c1cc(Cl)cnc1N | 194 to 198 °C
2 | CCOC(=O)CC(=O)Nc1ccc([N+](=O)[O-])cc1 | 102 to 103 °C
3 | COc1ccc(Cc2cc(O)ccc2OC)nc1 | 115 to 122 °C
4 | CC(C)N(CCOc1ccc2oc3ccc(OCCN(C(C)C)C(C)C)cc3c2c1)C(C)C | 47 to 49 °C
5 | COc1cc(C)c(C)[nH]c1=O | 215 to 219 °C
6 | c1ccc(-c2ccnc3ccnn23)cc1 | 72 to 73 °C
7 | COC(=O)[C@@H](NC(=O)c1ccc(C#Cc2ccc(C=O)cc2)cc1)[C@@H](C)O | 143 to 144 °C
8 | CCOC(=O)c1cnn(-c2cccc(S(=O)(=O)N(C)C)n2)c1N | 197 to 198 °C
9 | N#CCNC(=O)c1nn(C2CCCCO2)cc1NC(=O)c1ccccn1 (configuration not stated) | 213 to 214 °C
10 | COc1ccc(NC(=O)c2ccc(COc3ccc4c(c3)CCC(CCN3CCCCC3)C4)cc2)cc1OC (configuration not stated) | 178 to 180 °C
11 | CCC(CCNC(=O)CC#N)NC(=O)CC#N (configuration not stated) | 125 °C
12 | C(#Cc1ccsc1)c1cccnc1 | 62 °C
13 | COc1ccc(C(=O)c2csc(S(N)(=O)=O)c2)cc1 | 173 to 175 °C
14 | C=CCNc1ccc(C(=O)OC)cc1 | 71 to 73 °C
15 | CCCCN(CCCC)c1ccc(C=Cc2ccc(C=CC3=C(C#N)C(=C(C#N)C#N)OC3(c3ccccc3)C(F)(F)F)s2)c(OCc2ccccc2)c1 (configuration not stated) | 196 to 197 °C
16 | COC(=O)NCC1Cc2cc(Cl)cc(C3CCCCC3)c2O1 (configuration not stated) | 100 to 103 °C
17 | O=C(O)c1cn(C2CC2)c2c(F)c(N3CCOC(CN4CCOCC4)C3)c(F)cc2c1=O (configuration not stated) | 171 to 172 °C
18 | Cc1c(SCCCSCc2ccc(Cl)s2)ccnc1CNc1cnc2ccccc2c1 | 127 to 131 °C
19 | CCc1ccc(OCC(O)CN2CCC3(CC2)CSC2=C(O3)c3ccccc3C(=O)C2=O)cc1 (configuration not stated) | 137 to 138 °C
20 | CS(=O)(=O)OCc1cn(-c2ccc(N3CCOCC3)c(F)c2)nn1 | 158 °C
21 | O=C(NCC(c1ccccc1)c1ccccc1)N1CCC(=C(c2ccccc2)c2ccccc2)CC1 | 158 to 160 °C

Row | Structure (SMILES) | melting point
22 | CCCCCCCCCCCCc1nnn(C(C(=O)Nc2c(OC)cc(OC)cc2OC)c2ccccc2)n1 (configuration not stated) | 141 to 145 °C
23 | COc1cc(OC)cc(S(=O)(=O)c2ccc([N+](=O)[O-])cc2)c1 | 150 to 152 °C
24 | COc1ccc(C2CSc3ccccc3NC2=O)cc1Br (configuration not stated) | 200 °C
25 | CC12CC(O)C3=C4CCC(=O)C=C4CCC3C1C(O)CC2=O (configuration not stated) | 146 °C
26 | CN(C)C(=O)CCCOc1ccc2c(c1)C[C@@H](NC(=O)OC(C)(C)C)CC2 | 97 to 101 °C
27 | CC(C)(C)OC(=O)N1CCC(Sc2cc(C(C)(C)C)c(O)c(C(C)(C)C)c2)CC1 | 151 to 152 °C
28 | CC(=O)Nc1cccc(-c2ccc(C)c(COc3cccc4ccc(C)nc34)c2C)c1 | 197 to 199 °C
29 | CSc1ccc(-c2ccccc2)c([N+](=O)[O-])c1 | 51 to 52 °C
30 | CC1(C)CCc2c(-c3ccoc3)nc3sc4c(NCc5ccccn5)ncnc4c3c2C1 | 235 to 236 °C
31 | CC(C)(C)n1ncc(Cl)c(NCCN2CCN(c3cccc4c3OCCO4)CC2)c1=O | 177 to 178 °C
32 | CC(C)[C@H](C[C@H](O)[C@H](C)NC(=O)OC(C)(C)C)C(=O)NCc1cccnc1 | 147 to 149 °C
33 | O=C(c1cccnc1)N1CCC(c2ccccc2Cl)=N1 | 115 to 116 °C
34 | CNC(=S)NS(=O)(=O)c1cc2c(cc1OC)OC(C)(C)C(NC(=O)c1cc(F)ccc1OC)C2 (configuration not stated) | 222 °C
35 | O=C(NCc1ccc(Cl)cc1)c1cnc2c(OCCO)cc(CCCO)cc2c1O | 250 to 252 °C
36 | COC(=O)c1ccccc1Oc1ccc(C)cc1 | 31 to 34 °C
37 | Cc1cc(C)nc(COCP(=O)(O)O)c1 | 153 to 156 °C
38 | Cc1cc(C)c(C2C(=O)CCCC2=O)c(C)c1 | 196 to 198 °C
39 | O=C1C(=O)c2ccccc2C2=C1SCC1(CCN(Cc3ccc(-c4cn[nH]c4)cc3)CC1)O2 | 190 to 192 °C
40 | Cc1cc2c3c(ccc2cc1Br)OC(=O)C3 | 238 to 240 °C
41 | O=C(c1cccs1)c1cnn2c(-c3cccc(-c4nnn(Cc5ccncc5)n4)c3)ccnc12 | 170 °C
42 | CCC(=O)Nc1ccc(Cl)c(COc2cccn3c(Br)c(C)nc23)c1Cl | 205 to 207 °C

Row | Structure (SMILES) | melting point
43 | CCCC(CCC)C(=O)NC(=O)CN | 127 °C
44 | CCCCCCCCCCCCCCOc1ccc(NC(=O)c2cccc(CBr)c2)cc1 | 140 to 142 °C
45 | CCCCS(=O)c1ccc(C#N)nc1 (configuration not stated) | 54 to 55 °C
46 | C=CCSc1ccc(Oc2cccc(C)c2)nn1 | 48 to 50 °C
47 | Cc1c(NC(=O)CC(C)(C)C)c(C)c2c(c1-c1ccc(N(C)C)cc1)OCC2c1ccc(C(C)C)cc1 (configuration not stated) | 180 to 181 °C
48 | Cc1nc(C#CCCc2nc3ccccc3o2)c[nH]1 | 152 to 154 °C
49 | COc1ccc(-c2nc3n(c2-c2ccccc2)Cc2ccccc2C3)cc1 | 172 to 173 °C
50 | CCCc1ccc2nc(Cl)c(S(=O)(=O)Cl)n2n1 | 94.2 to 95.5 °C
51 | Cc1cccc(C=NNc2nc(OCCc3ccccn3)nc(N3CCOCC3)n2)c1 | 143 to 147 °C
52 | COc1ccc(S(=O)(=O)NC(C)c2ccccc2-c2cc(F)ccc2F)cc1 (configuration not stated) | 143 to 144 °C
53 | Nc1c(I)cc(Cl)cc1I | 127 to 129 °C
54 | Cn1nc(C#N)c(Nc2ccc(F)cc2[N+](=O)[O-])n1 | 159 to 160 °C
55 | Cc1oc(-c2ccc(S(C)(=O)=O)cc2)c(Oc2ccc(F)cc2F)c(=O)c1Cl | 210 °C
56 | C#CCOc1ccc2ccc(=S)oc2c1 | 97 to 101 °C
57 | CCOC(=O)C=Cc1ccc([N+](=O)[O-])c(C)c1 | 90 to 92 °C
58 | Nc1c(F)c(N2CCC(CC3(N)CC3)C2)c(F)c2c1c(=O)c(C(=O)O)cn2C1CC1F (configuration not stated) | 185 to 193 °C
59 | [N-]=[N+]=NC[C@H]1CN(c2ccc(N3C[C@@H]4C[C@H]3CO4)c(F)c2)C(=O)O1 | 101 to 102 °C
60 | C1=Cc2c(ccc3cccnc23)OC1 | 207 to 208 °C
61 | CCn1ncc2c(Cl)c3cc(Br)ccc3nc21 | 117 to 118 °C

Now from value to compound:

Row | melting point | Structure (SMILES)
62 | 190 to 192 °C | O=C(O)CCn1c(=O)c(=O)[nH]c2cc(C(F)(F)F)c(-n3cccc3)cc21
63 | 103 to 106 °C | C#CC[C@H](c1nc2cc(Cl)ccc2c(=O)n1Nc1ccccc1)N(CCCN)C(=O)c1cc2ccccc2s1
64 | 83 to 85 °C | CCOC(=O)CCC(=O)c1ccc(CCNS(=O)(=O)c2cccc(C(F)(F)F)c2)cc1
65 | 113 to 116 °C | CCN1C(=O)C(C)(C)C(=O)N(C)c2cc(CN(CCn3cc(C)c4oc(C)cc4c3=O)Cc3cc(C)n(C)n3)ccc21
66 | 165 to 166 °C | O=C(O)Cc1ccccc1Oc1ccc(C(F)(F)F)cc1NS(=O)(=O)c1cc(C(F)(F)F)cc(C(F)(F)F)c1
67 | 190 to 194 °C | COC(=O)CCc1ccc(-n2c(-c3ccccc3)nn(-c3ccc(C#N)cc3)c2=O)cc1
68 | 198 to 200 °C | CCOC(=O)c1cc2c3n(ccc-2n1)CC(c1cccc(OC)c1)=N3
69 | 189 to 191 °C | Cn1c2c(c(=O)n(-c3ccc(Cl)c(C(=O)OC(C)(C)C)c3)c1=O)CCC2
70 | 270 to 272 °C | O=C1CCC(N2Cc3c(OCc4ccc5nccn5c4)cccc3C2=O)C(=O)N1 (configuration not stated)
71 | 238 °C | CN1CCN(C(=O)c2ccc(-c3cnc4c(c3)N(Cc3cc(F)c(F)cc3F)C(=O)CN4)cc2)CC1
72 | 236 °C | CCn1c(=O)[nH]c(=O)c2c(-c3ccc(F)cc3)c(/C=C/C=O)c(C3CC3)nc21
73 | 319 to 320 °C | O=C(NCc1ccc(Cl)cc1)c1cnc2c(O)cccc2c1O
74 | 123 to 125 °C | O=C1c2ccccc2C(=O)N1CC1CC1c1cccc2nnsc12 (configuration not stated)
75 | 236 to 238 °C | Nc1c(F)c(N2CCC(c3ccncc3)C2)c(F)c2c1c(=O)c(C(=O)O)cn2C1CC1 (configuration not stated)
76 | 72 to 74 °C | CCOC(=O)C(C)Oc1cc(-n2c(=O)cc(C(F)(F)F)n(C)c2=O)c(F)cc1Cl (configuration not stated)
77 | 210 to 212 °C | COC(=O)c1ccccc1S(=O)(=O)NC(=O)c1cnc2c(C)cc(C)nn12
78 | 129 to 132 °C | COc1cccc([C@H]2O[C@H](CC(=O)NCc3ccc(CC(=O)O)cc3)C(=O)N(CC(C)(C)CO)c3ccc(Cl)cc32)c1OC
79 | 90 to 92 °C | COc1ccc([C@H]2SC(c3ccccc3)=C(C)N(CCN(C)C)C(=O)[C@H]2OC(C)=O)cc1

Row | melting point | Structure (SMILES)
80 | 229 to 230 °C | Cc1cc(-c2nc3cccnn3c2-c2ccnc(NC(=O)NCC(F)(F)F)c2)ccc1F
81 | 136 °C | CCn1cnc2c(Nc3cccc(F)c3)nc(Cl)nc21
82 | 133 to 135 °C | NNc1c([N+](=O)[O-])cnn1-c1c(Cl)cc(C(F)(F)F)cc1Cl
83 | 150 to 152 °C | CC(C)(C)OC(=O)n1cc(C(=O)c2ccn3c2CSC3c2cccnc2)c2ccccc21 (configuration not stated)
84 | 164 °C | N#CCOc1cc2c(cc1-c1ccc(F)cc1)NC(=O)CC(c1cccc(-n3ccnc3)c1)=N2
85 | 138 to 139 °C | Nc1c(Cl)cc(S(=O)(=O)C(F)(F)F)cc1[N+](=O)[O-]
86 | 202 to 204 °C | O=c1[nH]ncc2[nH]c(-c3ccc(OC(F)F)c(OC4CC4)c3)c(Cc3ccccc3F)c12
87 | 82 to 84 °C | CCOC(=O)C=Cc1cc(Br)cc(C(O)c2ccc(F)cc2)c1 (configuration not stated)
88 | 137 to 138 °C | Cc1nc(N)c2nc(C)n(CCOCc3ccccc3)c2c1C
89 | 152 to 154 °C | Cn1c(CC(=O)O)ccc1C(=O)c1ccc(C(F)(F)F)cc1
90 | 174 °C | O=C(O)CCCc1cc2nc(Cl)ccc2n1S(=O)(=O)c1ccc(-c2ccncc2)cc1
91 | > 260 °C | O=C(O)c1ccc(-c2ccc(NS(=O)(=O)c3cccnc3)cc2)[nH]c1=O
92 | 148 to 149 °C | NC(=O)C1=NN(c2cccc(COCC3CCCCC3)c2)C(c2ccccc2F)N1 (configuration not stated)
93 | 233 to 234 °C | Nc1ccc2cccc(Oc3cc(-c4ccc(C(F)(F)F)cc4N)ncn3)c2n1
94 | 199 to 200 °C | COC(=O)Nc1nccc(Oc2ccc3c(C(=O)Nc4cccc(C(F)(F)F)c4)cccc3c2)n1
95 | 65 to 67 °C | CCOC(=O)c1cc2ccccc2n1CC#N
96 | 120 to 121 °C | Cc1cc(SCc2ccc(OCc3ccccc3)cc2)ccc1OCC(=O)O
97 | 265 to 266 °C | COC(=O)c1cccc(-c2nc(C(N)=O)c3[nH]c(=O)n(-c4ccccc4OC)c3n2)c1
